Reference: US9889113B2, “Method for reversing, preventing, delaying or stabilizing soft tissue calcification” (Panion & BF Biotech, Inc., priority 2006, dated 2018)

Columns and labels:
[1] = test system: patients with end stage renal disease (ESRD); assay: Serum creatinine level in the open-label extension of the Phase II study; assay type: in vivo, human; details: several patients who received 6 g/day
Text: Glomerular filtration rate (GFR) level correlates with structural kidney damage and is used as a golden standard to measure kidney function. GFR can be estimated by the biomarkers serum creatinine. As renal function deteriorates, kidney lost its function to excrete creatinine effectively and lead to creatinine retention in the body. Therefore, increase of serum creatinine indicates lowering GFR and is an important sign of kidney deterioration.
In an open-label extension of a Phase II clinical study: “randomized, double-blind, placebo-controlled, dose-ranging study of the effects of ferric citrate on serum phosphate in patients with end stage renal disease (ESRD)”, some of the patients were administered 2-6 g/day of ferric citrate and serum creatinine level was monitored to assess kidney function.

[2] = test system: cornea calcification in end stage renal disease patients; assay: Cornea calcification by slit-lamp photographs and Image J analysis, Phase II and open-label extension; assay type: in vivo, human; details: for 1st eye test Calcified area on cornea (%): baseline
Procedure: Eye examinations were carried out by using a slit-lamp microscope which was connected to a digital camera (NIKON E995). Calcifications in the cornea occur close to the nasal and temporal sides of the corneal limbus and look like the band keratopathy of hypercalcemia. Observer photographed the inner side (close to nasal), outer side (close to temporal) or took a full view of the cornea where calcification was found (FIG. 6).
An image analysis software called “Image J” was used for data analysis. The image analysis software is developed to display, edit, analyze, process, save and print 8-bit, 16-bit and 32-bit images. It can calculate area and pixel value statistics of user-defined selections, measure distances and angles, and create density histograms and line profile plots. It supports standard image processing functions such as contrast manipulation, sharpening, smoothing, edge detection and median filtering. The software is developed at the Research Services Branch of the National Institute of Mental Health, an institute of the National Institutes of Health (NIH). The software can be downloaded from the NIH website.
The image analysis software is able to measure calcified area and total cornea area that are subjectively defined by the user. To estimate calcified area, the observer first loads the patient's eye picture on to the image software, crops the specific calcified region, and the software will measure the defined section accordingly (defined as how many pixels in that area). […] To estimate the size of the full cornea, the observer used the image software to crop a 90 degrees fan-shape area on the available cornea region on the picture subjectively, and then let the software calculate the size of this fan-shape area to represent ¼ of the full cornea. By multiply the number by four, the observer then got an estimate of total cornea area.
The severity of cornea calcification was evaluated based on the percentage of the cornea surface occupied by calcification, i.e. % inner side calcification+% outer side calcification, wherein inner or outer side calcification is calculated as (calcified area on inner or outer cornea/total cornea area)×100.
In this study, patients were referred to ophthalmic department for eye examination before and after ferric citrate treatment. All patients had their 1st eye examination few days before or on the first dosing day of the Phase II trial (baseline value for cornea calcification). The time for 2nd eye examination was varied. Some were examined right after the Phase II study and some were examined during the OLE period. Nonetheless, disregarding when the 2nd eye examination was taken, it must be obtained after a defined consecutive days of ferric citrate administration in order to be considered as valid value for determinating the effects of ferric citrate on the cornea calcification changes.
All patients from the ferric citrate Phase II clinical trial were followed with a drug free period for various length of time, and some patients then participated in the open-label extension treatment period. Each participating patients received two eye examinations performed by an ophthalmologist. Depending on the dates of the first and second eye examinations and the corresponding drug dosing period, not all participating patients can generate usable information. The accepted patients were those who had received consecutive dosing for at least 21 days. The period between the first and second eye examination was at least as long as the dosing period. The actual interval between the two eye examinations was not relevant for the purpose of this evaluation since the longer the time between the first and second eye examination, the higher the possibility of cornea calcification development, not the other way around. […]

[3] = 11 patients on active treatment (22 eye values)
[4] = Subject 2-01-1-002, Left eye, 2 g/day, treatment 28 days, interval between tests 61 days
[5] = Subject 2-01-1-002, Right eye, 2 g/day, treatment 28 days, interval between tests 61 days
[6] = Subject 2-01-1-004, Left eye, 6 g/day, treatment 28 days, interval between tests 78 days
[7] = Subject 2-01-1-004, Right eye, 6 g/day, treatment 28 days, interval between tests 78 days
[8] = Subject 2-01-1-006, Left eye, 6 g/day, treatment 28 days, interval between tests 50 days
[9] = Subject 2-01-1-006, Right eye, 6 g/day, treatment 28 days, interval between tests 50 days
[10] = Subject 2-01-1-009, Left eye, 4 g/day, treatment 28 days, interval between tests 50 days
[11] = Subject 2-01-1-009, Right eye, 4 g/day, treatment 28 days, interval between tests 50 days
[12] = Subject 2-01-1-012, Left eye, 2 g/day, treatment 28 days, interval between tests 66 days
[13] = Subject 2-01-1-012, Right eye, 2 g/day, treatment 28 days, interval between tests 66 days
[14] = Subject 2-01-1-018, Left eye, 6 g/day, treatment 28 days, interval between tests 75 days
[15] = Subject 2-01-1-018, Right eye, 6 g/day, treatment 28 days, interval between tests 75 days
[16] = Subject 2-01-1-022, Left eye, 6 g/day, treatment 57 days, interval between tests 217 days
[17] = Subject 2-01-1-022, Right eye, 6 g/day, treatment 57 days, interval between tests 217 days
[18] = Subject 2-01-1-042, Left eye, 6 g/day, treatment 42 days, interval between tests 199 days
[19] = Subject 2-01-1-042, Right eye, 6 g/day, treatment 42 days, interval between tests 199 days
[20] = Subject 2-01-1-048, Left eye, 4 g/day, treatment 28 days, interval between tests 186 days
[21] = Subject 2-01-1-048, Right eye, 4 g/day, treatment 28 days, interval between tests 186 days
[22] = Subject 2-01-1-050, Left eye, 6 g/day, treatment 33 days, interval between tests 198 days
[23] = Subject 2-01-1-050, Right eye, 6 g/day, treatment 33 days, interval between tests 198 days
[24] = Subject 2-01-1-068, Left eye, 6 g/day, treatment 34 days, interval between tests 202 days
[25] = Subject 2-01-1-068, Right eye, 6 g/day, treatment 34 days, interval between tests 202 days

## O=C([O-])CC(O)(CC(=O)[O-])C(=O)[O-].[Fe+3] [ferric citrate]
[1]
  serum creatinine level: trend of decreased serum creatinine level
[2]; 10 worsened eye values of 11 actively treated patients
  average change of worsened eye cornea calcification values: +2.20%
[2]; 11 improved eye values of 11 actively treated patients
  average change of improved eye cornea calcification values: −2.07%
[2]; [3]
  number of eye cornea calcification values that exhibited improvement: 11
  number of eye cornea calcification values that remained unchanged: one
[2]; 11 patients on active treatment (22 eye values), 2-6 g/day, 28 to 57 days
  number of eye cornea calcification values that exhibited worsened results: 10
[2]; ESRD patients, 2-6 g/day
  effect on cornea calcification conditions (overall): appears to delay or improve cornea calcification conditions
[2]; Patient ID 2-01-1-012, 2 g/day, treatment period 28 days
  cornea calcification after treatment (FIG. 10): improved cornea calcification
[2]; [4]
  2nd eye test Calcified area on cornea (%): 3.75%
  Difference between 1st and 2nd tests (%): −0.15%
  1st eye test Calcified area on cornea (%): 3.90%
[2]; [5]
  2nd eye test Calcified area on cornea (%): 0.00%
  Difference between 1st and 2nd tests (%): 0.00%
  1st eye test Calcified area on cornea (%): 0.00%
[2]; [6]
  2nd eye test Calcified area on cornea (%): 1.10%
  Difference between 1st and 2nd tests (%): −1.40%
  1st eye test Calcified area on cornea (%): 2.50%
[2]; [7]
  2nd eye test Calcified area on cornea (%): 2.20%
  Difference between 1st and 2nd tests (%): −2.18%
  1st eye test Calcified area on cornea (%): 4.38%
[2]; [8]
  2nd eye test Calcified area on cornea (%): 50.36%
  Difference between 1st and 2nd tests (%): −0.59%
  1st eye test Calcified area on cornea (%): 50.95%
[2]; [9]
  2nd eye test Calcified area on cornea (%): 29.27%
  Difference between 1st and 2nd tests (%): −3.16%
  1st eye test Calcified area on cornea (%): 32.43%
[2]; [10]
  2nd eye test Calcified area on cornea (%): 0.00%
  Difference between 1st and 2nd tests (%): −1.16%
  1st eye test Calcified area on cornea (%): 1.16%
[2]; [11]
  2nd eye test Calcified area on cornea (%): 1.00%
  Difference between 1st and 2nd tests (%): 0.49%
  1st eye test Calcified area on cornea (%): 0.51%
[2]; [12]
  2nd eye test Calcified area on cornea (%): 2.09%
  Difference between 1st and 2nd tests (%): −1.41%
  1st eye test Calcified area on cornea (%): 3.50%
[2]; [13]
  2nd eye test Calcified area on cornea (%): 4.69%
  Difference between 1st and 2nd tests (%): −10.21%
  1st eye test Calcified area on cornea (%): 14.90%
[2]; [14]
  2nd eye test Calcified area on cornea (%): 7.72%
  Difference between 1st and 2nd tests (%): 1.79%
  1st eye test Calcified area on cornea (%): 5.93%
[2]; [15]
  2nd eye test Calcified area on cornea (%): 38.86%
  Difference between 1st and 2nd tests (%): −1.99%
  1st eye test Calcified area on cornea (%): 40.85%
[2]; [16]
  2nd eye test Calcified area on cornea (%): 8.37%
  Difference between 1st and 2nd tests (%): 6.98%
  1st eye test Calcified area on cornea (%): 1.39%
[2]; [17]
  2nd eye test Calcified area on cornea (%): 7.29%
  Difference between 1st and 2nd tests (%): 0.08%
  1st eye test Calcified area on cornea (%): 7.21%
[2]; [18]
  2nd eye test Calcified area on cornea (%): 4.91%
  Difference between 1st and 2nd tests (%): 4.24%
  1st eye test Calcified area on cornea (%): 0.67%
[2]; [19]
  2nd eye test Calcified area on cornea (%): 3.73%
  Difference between 1st and 2nd tests (%): 3.24%
  1st eye test Calcified area on cornea (%): 0.49%
[2]; [20]
  2nd eye test Calcified area on cornea (%): 2.01%
  Difference between 1st and 2nd tests (%): 0.16%
  1st eye test Calcified area on cornea (%): 1.85%
[2]; [21]
  2nd eye test Calcified area on cornea (%): 2.09%
  Difference between 1st and 2nd tests (%): −0.41%
  1st eye test Calcified area on cornea (%): 2.50%
[2]; [22]
  2nd eye test Calcified area on cornea (%): 1.62%
  Difference between 1st and 2nd tests (%): 0.76%
  1st eye test Calcified area on cornea (%): 0.86%
[2]; [23]
  2nd eye test Calcified area on cornea (%): 1.54%
  Difference between 1st and 2nd tests (%): −0.08%
  1st eye test Calcified area on cornea (%): 1.62%
[2]; [24]
  2nd eye test Calcified area on cornea (%): 3.09%
  Difference between 1st and 2nd tests (%): 2.04%
  1st eye test Calcified area on cornea (%): 1.05%
[2]; [25]
  2nd eye test Calcified area on cornea (%): 2.24%
  Difference between 1st and 2nd tests (%): 2.24%
  1st eye test Calcified area on cornea (%): 0.00%
